System: MV-4-11 cells
Assay: Gene expression microarray analysis (Affymetrix PrimeView) and GSEA
Assay type: cell-based, human
Parameters: RFU PODN (11730768_x_at) / Fold change /veh PODN (11730768_x_at) / RFU LINC00158 (11744669_a_at) / Fold change /veh LINC00158 (11744669_a_at) / RFU DUSP10 (11751237_a_at) / Fold change /veh DUSP10 (11751237_a_at) / RFU ID3 (11757404_x_at) / Fold change /veh ID3 (11757404_x_at) / RFU PLEKHG5 (11737974_s_at) / Fold change /veh PLEKHG5 (11737974_s_at) / RFU LRRC4B (11730491_at) / Fold change /veh LRRC4B (11730491_at) / RFU GIMAP4 (11747438_a_at) / Fold change /veh GIMAP4 (11747438_a_at) / RFU KRT8 (11758183_x_at) / Fold change /veh KRT8 (11758183_x_at) / RFU CNN1 (11734310_a_at) / Fold change /veh CNN1 (11734310_a_at) / RFU VPS37D (11726825_at) / Fold change /veh VPS37D (11726825_at) / RFU C10orf10 (11716522_x_at) / Fold change /veh C10orf10 (11716522_x_at) / RFU KIR2DL2 /// KIR2DL4 /// KIR2DL5A /// KIR2DL5B /// KIR2DS1 /// KIR2DS2 /// KIR2DS3 /// KIR2DS4 /// KIR3DL3 /// KIR3DL3 /// KIR3DS1 (11738374_at) / Fold change /veh KIR2DL2 /// KIR2DL4 /// KIR2DL5A /// KIR2DL5B /// KIR2DS1 /// KIR2DS2 /// KIR2DS3 /// KIR2DS4 /// KIR3DL3 /// KIR3DL3 /// KIR3DS1 (11738374_at) / RFU C1QL1 (11718748_at) / Fold change /veh C1QL1 (11718748_at) / RFU TMPRSS4 (11747572_a_at) / Fold change /veh TMPRSS4 (11747572_a_at) / RFU HAMP (11756126_x_at) / Fold change /veh HAMP (11756126_x_at) / RFU RNFT2 (11725882_a_at) / Fold change /veh RNFT2 (11725882_a_at) / RFU NR4A2 (11747474_a_at) / Fold change /veh NR4A2 (11747474_a_at) / RFU ABCC12 (11746883_a_at) / Fold change /veh ABCC12 (11746883_a_at) / RFU TMEM136 (11760407_x_at) / Fold change /veh TMEM136 (11760407_x_at) / RFU CLDN22 /// WWC2 (11732394_at) / Fold change /veh CLDN22 /// WWC2 (11732394_at) / RFU HLA-DPB1 (11760878_x_at) / Fold change /veh HLA-DPB1 (11760878_x_at) / RFU SPINT1 (11716480_a_at) / Fold change /veh SPINT1 (11716480_a_at) / RFU GAP43 (11754022_s_at) / Fold change /veh GAP43 (11754022_s_at) / RFU A4GNT (11735810_at) / Fold change /veh A4GNT (11735810_at) / RFU PRB3 (11715151_x_at) / Fold change /veh PRB3 (11715151_x_at) / RFU TUBB4B (11761932_at) / Fold change /veh TUBB4B (11761932_at) / RFU CAPN14 (11732068_a_at) / Fold change /veh CAPN14 (11732068_a_at) / RFU TMCC2 (11721928_a_at) / Fold change /veh TMCC2 (11721928_a_at) / RFU IRGQ (11745062_a_at) / Fold change /veh IRGQ (11745062_a_at) / RFU FAM174B (11720279_a_at) / Fold change /veh FAM174B (11720279_a_at) / RFU TMPRSS4 (11748680_a_at) / Fold change /veh TMPRSS4 (11748680_a_at) / RFU FAM212B (11763350_a_at) / Fold change /veh FAM212B (11763350_a_at) / RFU PLEKHG5 (11743358_a_at) / Fold change /veh PLEKHG5 (11743358_a_at) / RFU ZSCAN30 (11745921_a_at) / Fold change /veh ZSCAN30 (11745921_a_at) / RFU CMKLR1 (11741424_a_at) / Fold change /veh CMKLR1 (11741424_a_at) / RFU LOC101060620 /// MAPK8IP1 (11723275_at) / Fold change /veh LOC101060620 /// MAPK8IP1 (11723275_at) / RFU SPTSSB (11747773_x_at) / Fold change /veh SPTSSB (11747773_x_at) / RFU PRSS12 (11739890_at) / Fold change /veh PRSS12 (11739890_at) / RFU BIN1 (11741810_x_at) / Fold change /veh BIN1 (11741810_x_at) / RFU WNT11 (11732464_a_at) / Fold change /veh WNT11 (11732464_a_at) / RFU C10orf10 (11716521_a_at) / Fold change /veh C10orf10 (11716521_a_at) / RFU C5orf56 (11738089_at) / Fold change /veh C5orf56 (11738089_at) / RFU CYB561 (11721691_x_at) / Fold change /veh CYB561 (11721691_x_at) / RFU ANKRD19P (11752326_a_at) / Fold change /veh ANKRD19P (11752326_a_at) / RFU OR2T12 /// OR2T33 /// OR2T8 (11738714_s_at) / Fold change /veh OR2T12 /// OR2T33 /// OR2T8 (11738714_s_at) / RFU VCAN (11748164_a_at) / Fold change /veh VCAN (11748164_a_at) / RFU JSRP1 (11732532_at) / Fold change /veh JSRP1 (11732532_at) / RFU KRTAP10-11 (11738290_x_at) / Fold change /veh KRTAP10-11 (11738290_x_at) / RFU MYO3A (11730013_a_at) / Fold change /veh MYO3A (11730013_a_at) / RFU EBF3 (11725865_a_at) / Fold change /veh EBF3 (11725865_a_at) / RFU CAMK2N1 (11719241_x_at) / Fold change /veh CAMK2N1 (11719241_x_at) / RFU C5orf56 (11738088_a_at) / Fold change /veh C5orf56 (11738088_a_at) / RFU OLFML3 (11715873_a_at) / Fold change /veh OLFML3 (11715873_a_at) / RFU LOC100653217 /// NTM (11731650_a_at) / Fold change /veh LOC100653217 /// NTM (11731650_a_at) / RFU MAPK11 (11762145_a_at) / Fold change /veh MAPK11 (11762145_a_at) / RFU FIZ1 (11724087_x_at) / Fold change /veh FIZ1 (11724087_x_at) / RFU OASL (11726364_x_at) / Fold change /veh OASL (11726364_x_at) / RFU SOX15 (11748057_x_at) / Fold change /veh SOX15 (11748057_x_at) / RFU CD79A (11719716_a_at) / Fold change /veh CD79A (11719716_a_at) / RFU HIST1H1D (11736915_at) / Fold change /veh HIST1H1D (11736915_at) / RFU CASKIN2 (11723855_a_at) / Fold change /veh CASKIN2 (11723855_a_at) / RFU LOC730098 (11760151_x_at) / Fold change /veh LOC730098 (11760151_x_at) / RFU OR4N2 (11742367_at) / Fold change /veh OR4N2 (11742367_at) / RFU PRRT2 (11749266_a_at) / Fold change /veh PRRT2 (11749266_a_at) / RFU SNX32 (11753110_a_at) / Fold change /veh SNX32 (11753110_a_at) / RFU CDHR5 (11726645_a_at) / Fold change /veh CDHR5 (11726645_a_at) / RFU RCAN1 (11760418_a_at) / Fold change /veh RCAN1 (11760418_a_at) / RFU FAM167A (11723789_a_at) / Fold change /veh FAM167A (11723789_a_at) / RFU FAM26E (11764081_at) / Fold change /veh FAM26E (11764081_at) / RFU ISYNA1 (11749810_s_at) / Fold change /veh ISYNA1 (11749810_s_at) / RFU ACY1 (11761880_at) / Fold change /veh ACY1 (11761880_at) / RFU 11764098_at / Fold change /veh 11764098_at / RFU SAMD14 (11745864_x_at) / Fold change /veh SAMD14 (11745864_x_at) / RFU NPB (11741838_a_at) / Fold change /veh NPB (11741838_a_at) / RFU TMPRSS6 (11731388_a_at) / Fold change /veh TMPRSS6 (11731388_a_at) / RFU KRTAP10-2 (11738614_at) / Fold change /veh KRTAP10-2 (11738614_at) / RFU ARHGAP8 /// PRR5-ARHGAP8 (11727945_x_at) / Fold change /veh ARHGAP8 /// PRR5-ARHGAP8 (11727945_x_at) / RFU KRTAP5-7 /// NADSYN1 (11734609_at) / Fold change /veh KRTAP5-7 /// NADSYN1 (11734609_at) / RFU RASL12 (11751679_a_at) / Fold change /veh RASL12 (11751679_a_at) / RFU CDKN2B (11736163_a_at) / Fold change /veh CDKN2B (11736163_a_at) / RFU PRF1 (11729649_at) / Fold change /veh PRF1 (11729649_at) / RFU, ZNF638 /// ZNF638-IT1 / Fold change vs veh, ZNF638 /// ZNF638-IT1 / RFU, PANK3 / Fold change vs veh, PANK3 / RFU, SH3YL1 / Fold change vs veh, SH3YL1 / RFU, ZEB2 / Fold change vs veh, ZEB2 / RFU, NRIP1 / Fold change vs veh, NRIP1 / RFU, PTTG1IP / Fold change vs veh, PTTG1IP / RFU, CAPN2 / Fold change vs veh, CAPN2 / RFU, MED14 / Fold change vs veh, MED14 / RFU, SNORA58 / Fold change vs veh, SNORA58 / RFU, C1orf63 / Fold change vs veh, C1orf63 / RFU, LRRFIP1 / Fold change vs veh, LRRFIP1 / RFU, NDUFAF7 / Fold change vs veh, NDUFAF7 / RFU, SLC12A2 / Fold change vs veh, SLC12A2 / RFU, IBTK / Fold change vs veh, IBTK / RFU, ESF1 / Fold change vs veh, ESF1 / Fold change vs veh, TMEM50B / RFU, TAOK1 / Fold change vs veh, TAOK1 / RFU, ACBD3 / Fold change vs veh, ACBD3 / RFU, TMA16 / Fold change vs veh, TMA16 / RFU, RWDD3 / Fold change vs veh, RWDD3 / RFU, BCAT1 / Fold change vs veh, BCAT1 / RFU, EDEM3 / Fold change vs veh, EDEM3 / RFU, TMEM33 / Fold change vs veh, TMEM33 / RFU, WDR75 / Fold change vs veh, WDR75 / RFU, AHCTF1 / Fold change vs veh, AHCTF1 / RFU, TFRC / Fold change vs veh, TFRC / RFU, ZDHHC17 / Fold change vs veh, ZDHHC17 / RFU, NOM1 / Fold change vs veh, NOM1 / RFU, ARL8B / Fold change vs veh, ARL8B / RFU, ZBTB11 / Fold change vs veh, ZBTB11 / RFU, TAMM41 / Fold change vs veh, TAMM41 / RFU, KIAA1704 /// LOC100996395 / Fold change vs veh, KIAA1704 /// LOC100996395 / RFU, ING1 / Fold change vs veh, ING1 / RFU, TRMT61B / Fold change vs veh, TRMT61B / RFU, FUBP3 / Fold change vs veh, FUBP3 / RFU, TP53 / Fold change vs veh, TP53 / RFU, TNKS2 / Fold change vs veh, TNKS2 / RFU, ZFP14 / Fold change vs veh, ZFP14 / RFU, ACTR2 / Fold change vs veh, ACTR2 / RFU, PPP3R1 / Fold change vs veh, PPP3R1 / RFU, PIK3R1 / Fold change vs veh, PIK3R1 / RFU, HNRNPA1 / Fold change vs veh, HNRNPA1 / RFU, RNF170 / Fold change vs veh, RNF170 / RFU, ZNF28 / Fold change vs veh, ZNF28 / RFU, RNGTT / Fold change vs veh, RNGTT / RFU, OGT / Fold change vs veh, OGT / RFU, BRD1 / Fold change vs veh, BRD1 / RFU, MARS / Fold change vs veh, MARS / RFU, ZNF655 / Fold change vs veh, ZNF655 / RFU, FAHD1 / Fold change vs veh, FAHD1 / RFU, BDP1 / Fold change vs veh, BDP1 / RFU, LRRCC1 / Fold change vs veh, LRRCC1 / RFU, ARID1A / Fold change vs veh, ARID1A / RFU, ZNF146 / Fold change vs veh, ZNF146 / RFU, ZNF330 / Fold change vs veh, ZNF330 / RFU, GPN3 / Fold change vs veh, GPN3 / RFU, C9orf123 / Fold change vs veh, C9orf123 / RFU, N4BP2L2 / Fold change vs veh, N4BP2L2 / RFU, ARFIP1 / Fold change vs veh, ARFIP1 / RFU, FAM179B / Fold change vs veh, FAM179B / RFU, BCL10 / Fold change vs veh, BCL10 / RFU, UHRF1BP1L / Fold change vs veh, UHRF1BP1L / RFU, BET1 / Fold change vs veh, BET1 / RFU, CNOT2 / Fold change vs veh, CNOT2 / RFU, ZNF268 / Fold change vs veh, ZNF268 / Fold change vs veh, ZNF507 / RFU, DGCR2 / Fold change vs veh, DGCR2 / RFU, WDSUB1 / Fold change vs veh, WDSUB1 / Fold change vs veh, HSP90B1 /// MIR3652 / RFU, ADSS / Fold change vs veh, ADSS / RFU, GK / Fold change vs veh, GK / RFU, ZNF148 / Fold change vs veh, ZNF148 / RFU, TAF9 / Fold change vs veh, TAF9 / RFU, SLC1A5 / Fold change vs veh, SLC1A5 / RFU, SLMO2 / Fold change vs veh, SLMO2 / RFU, ABCC4 / Fold change vs veh, ABCC4 / RFU, LOC101060439 /// RAP1B / Fold change vs veh, LOC101060439 /// RAP1B / RFU, RFX7 / Fold change vs veh, RFX7 / RFU, GTPBP10 / Fold change vs veh, GTPBP10 / RFU, CNEP1R1 / Fold change vs veh, CNEP1R1 / RFU, BIVM-ERCC5 /// ERCC5 / Fold change vs veh, BIVM-ERCC5 /// ERCC5 / RFU, ILF3 / Fold change vs veh, ILF3 / RFU 11762660_at / Fold change /veh 11762660_at / RFU VCAN (11757783_s_at) / Fold change /veh VCAN (11757783_s_at) / RFU DDX43 (11728927_at) / Fold change /veh DDX43 (11728927_at) / RFU KRT8 (11758188_x_at) / Fold change /veh KRT8 (11758188_x_at) / RFU NKD1 (11759106_at) / Fold change /veh NKD1 (11759106_at) / RFU SRD5A1 (11742802_a_at) / Fold change /veh SRD5A1 (11742802_a_at) / RFU TPSAB1 /// TPSB2 (11721975_s_at) / Fold change /veh TPSAB1 /// TPSB2 (11721975_s_at) / RFU GSTM3 (11746129_a_at) / Fold change /veh GSTM3 (11746129_a_at) / RFU IL23R (11737362_x_at) / Fold change /veh IL23R (11737362_x_at) / RFU TMEM51 (11727254_a_at) / Fold change /veh TMEM51 (11727254_a_at) / RFU PIWIL2 (11732686_x_at) / Fold change /veh PIWIL2 (11732686_x_at) / RFU ORM1 (11744905_x_at) / Fold change /veh ORM1 (11744905_x_at) / RFU CCDC152 (11743942_at) / Fold change /veh CCDC152 (11743942_at) / RFU ECM1 (11717891_a_at) / Fold change /veh ECM1 (11717891_a_at) / RFU IL23R (11748794_a_at) / Fold change /veh IL23R (11748794_a_at) / RFU TNFAIP8L3 (11732012_x_at) / Fold change /veh TNFAIP8L3 (11732012_x_at) / RFU MBOAT4 (11741988_at) / Fold change /veh MBOAT4 (11741988_at) / RFU 11764193_at / Fold change /veh 11764193_at / RFU TMEM53 (11763286_at) / Fold change /veh TMEM53 (11763286_at) / RFU MAGEB2 (11727129_at) / Fold change /veh MAGEB2 (11727129_at) / RFU TMEM200A (11744735_a_at) / Fold change /veh TMEM200A (11744735_a_at) / RFU CCDC152 (11751479_a_at) / Fold change /veh CCDC152 (11751479_a_at) / RFU FAM211A (11726209_a_at) / Fold change /veh FAM211A (11726209_a_at) / RFU RGS16 (11746705_a_at) / Fold change /veh RGS16 (11746705_a_at) / RFU VCAN (11755009_s_at) / Fold change /veh VCAN (11755009_s_at) / RFU RHOB (11743442_s_at) / Fold change /veh RHOB (11743442_s_at) / RFU RGS16 (11720943_a_at) / Fold change /veh RGS16 (11720943_a_at) / RFU RGS16 (11720944_at) / Fold change /veh RGS16 (11720944_at) / RFU, VPS4B / Fold change vs veh, VPS4B / RFU, CREB1 / Fold change vs veh, CREB1 / RFU, DNAJC13 / Fold change vs veh, DNAJC13 / RFU, GNAQ / Fold change vs veh, GNAQ / RFU, CDK5R1 / Fold change vs veh, CDK5R1 / RFU, ZRANB3 / Fold change vs veh, ZRANB3 / RFU, CUL4A / Fold change vs veh, CUL4A / RFU, CCNY / Fold change vs veh, CCNY / RFU, UFL1 / Fold change vs veh, UFL1 / RFU, COG3 / Fold change vs veh, COG3 / RFU, DIAPH2 / Fold change vs veh, DIAPH2 / RFU, SKA2 / Fold change vs veh, SKA2 / RFU, AFF3 / Fold change vs veh, AFF3 / RFU, LMF1 / Fold change vs veh, LMF1 / RFU, IPO11 / Fold change vs veh, IPO11 / RFU, DFFB / Fold change vs veh, DFFB / RFU, FOXP1 / Fold change vs veh, FOXP1 / RFU, CARD8 / Fold change vs veh, CARD8 / RFU, STRN3 / Fold change vs veh, STRN3 / RFU, ADK / Fold change vs veh, ADK / RFU, RASSF2 / Fold change vs veh, RASSF2 / RFU, WIPF1 / Fold change vs veh, WIPF1 / RFU, LARP1B / Fold change vs veh, LARP1B / RFU, RASA1 / Fold change vs veh, RASA1 / RFU, RB1 / Fold change vs veh, RB1 / RFU, PPFIA1 / Fold change vs veh, PPFIA1 / RFU, MAT2A / Fold change vs veh, MAT2A / RFU, CCT5 / Fold change vs veh, CCT5 / RFU, WDR92 / Fold change vs veh, WDR92 / RFU, CUX1 / Fold change vs veh, CUX1 / RFU, TTC7A / Fold change vs veh, TTC7A / RFU, TMEM135 / Fold change vs veh, TMEM135 / RFU, DEPTOR / Fold change vs veh, DEPTOR / RFU, CPM / Fold change vs veh, CPM / RFU, DNAJB6 / Fold change vs veh, DNAJB6 / RFU, CACNA2D3 / Fold change vs veh, CACNA2D3 / RFU, DTX4 / Fold change vs veh, DTX4 / RFU, TFCP2 / Fold change vs veh, TFCP2 / RFU, GMCL1 /// GMCL1P1 / Fold change vs veh, GMCL1 /// GMCL1P1 / RFU, AEBP2 / Fold change vs veh, AEBP2 / RFU, SNHG1 /// SNORD22 /// SNORD25 /// SNORD26 /// SNORD27 /// SNORD28 /// SNORD29 /// SNORD31 / Fold change vs veh, SNHG1 /// SNORD22 /// SNORD25 /// SNORD26 /// SNORD27 /// SNORD28 /// SNORD29 /// SNORD31 / Fold change (Aza/veh), C12orf56 (ProbeSet 11735607_a_at) / Fold change (ACY-1035/veh), C12orf56 (ProbeSet 11735607_a_at) / Fold change (Aza/veh), FGFR1OP (ProbeSet 11751329_s_at) / Fold change (ACY-1035/veh), FGFR1OP (ProbeSet 11751329_s_at) / Fold change (Aza/veh), VPS36 (ProbeSet 11739960_a_at) / Fold change (ACY-1035/veh), VPS36 (ProbeSet 11739960_a_at) / RFU SYPL1 (11715823_x_at) / Fold change /veh SYPL1 (11715823_x_at) / RFU IGFBP7 (11715501_s_at) / Fold change /veh IGFBP7 (11715501_s_at) / RFU REEP3 (11722064_at) / Fold change /veh REEP3 (11722064_at) / RFU IGLL1 (11728026_x_at) / Fold change /veh IGLL1 (11728026_x_at): dose or concentration left out as unconfirmed
Details: ProbeSet 11730501_a_at; LIST D

Nc1ncn([C@@H]2O[C@H](CO)[C@@H](O)[C@H]2O)c(=O)n1 [azacitidine]
Fold change vs veh, CACNA2D3: 0.63

— article PMC5218480 (PLoS ONE, 2017)
